The values that follow come from US11633418B2, “Deoxyribonucleoside monophospate bypass therapy for mitochondrial DNA depletion syndrome” (priority 2015, dated 2023).

The data set is described as follows: Dissolution in liquid (water, formula or milk). The class given is physicochemical. How it is done: The preferred form of the administration of the deoxyribonucleoside monophosphates is in the form of disodium salts of the deoxyribonucleoside monophosphates. […] Once administered, the deoxyribonucleoside monophosphates salts convert to the free acid form. By way of example, for some of the oral administration to human patients, 2000 mg each of dTMP Na2 and dCMP Na2 were dissolved in 25 ml of water.

Consider `Cc1cn([C@H]2C[C@H](O)[C@@H](COP(=O)([O-])[O-])O2)c(=O)[nH]c1=O.[Na+].[Na+]` [dTMP Na2], for which the “Dissolution in liquid (such as water, formula or milk)” value is reported as “easily dissolved”.

For the compound `Nc1ccn([C@H]2C[C@H](O)[C@@H](COP(=O)([O-])[O-])O2)c(=O)n1.[Na+].[Na+]` [dCMP Na2], the “Dissolution in liquid (such as water, formula or milk)” value is recorded as “easily dissolved”.
